Data published in article PMC5651374 (Alzheimer's & Dementia : Translational Research & Clinical …, 2016).

Conditions: brain imaging

C[N+]1=C(C=CC=CC=C2N(CCCCCC(=O)ON3C(=O)CCC3=O)c3ccc4ccccc4c3C2(C)C)C(C)(C)c2c1ccc1ccccc21.[Cl-] [Cy5 dye, Cyanine5.5 NHS ester dye]
ability to cross the BBB, dye injected alone: could not on its own cross the BBB
